83 compounds from PubChem BioAssay AID1959 (Broad Institute, 2009) can be followed below.

Activity calls are given as the source filed them.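 The calls were made as follows: active = growth-inhibition EC50 no more than tenfold above the top tested dose; inconclusive = flat fit between 30% and 70% inhibition, or unreliable fit; inactive = EC50 more than tenfold above the top tested dose.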 Some results are limits rather than exact numbers.

As a reminder, the EC50 is the concentration at which the effect is half-maximal.

In this experiment the test system is E. coli NEB5alpha growth, BacTiter-Glo luminescence, 4 h. Description: Escherichia coli growth inhibition, dose response, counter-screen for MEX-5/POS-1 RNA-binding inhibitor project, luminescence, NEB5alpha (AID 1959).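 Also: pUC19-transformed ampicillin-resistant cells grown in LB with ampicillin.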 Background: A counterscreen serves to expose hits that act by an unwanted route or on another target.
As to `O=C1NC(=O)C(=Cc2ccc(-c3ccc(S(=O)(=O)N4CCOCC4)cc3)o2)C(=O)N1`, the EC50 was > 11 µM (inactive).
Turning to `O=C(N=c1ccn(-c2nc3ccccc3nc2NS(=O)(=O)c2ccccc2)cc1)c1ccccc1Cl`, the EC50 was > 11 µM (inactive).
The value for `CCOC(=O)N1CC=C2C(C#N)=C(N)C(C#N)(C#N)[C@H](c3ccsc3)[C@H]2C1` was > 11 µM (inactive); that for `O=C(c1ccco1)N1CCc2ccccc21` was > 11 µM (inactive); that for `COc1cc(/C=N\Nc2ccc([N+](=O)[O-])cc2)ccc1OCC(=O)Nc1ccc(C)c(C)c1` was > 11 µM (inactive).
For `CCN(CC)C(=O)CSc1nnc2nnc3cc(Cl)ccc3n12` the value was > 11 µM (inactive); for `O=C(/C=C/c1ccc(OCCCF)cc1)Nc1ccnc(-c2cccnc2)n1`, > 11 µM (inactive).
For `C=Cc1c(C)c2cc3[nH]c(cc4nc(cc5nc(cc1[nH]2)C(C)=C5CCC(=O)O)C(CCC(=O)O)=C4C)c(C)c3C=C` the value was > 11 µM (inactive).
As for `O=C(O)c1ccccc1-n1c(-c2ccccc2)cc2c1CCCC2=O`, the EC50 was > 11 µM (inactive).
The value for `C=CCn1c(Cc2nc3ccccc3[nH]2)n[nH]c1=S` was > 11 µM (inactive).
The value for `O=C(N/N=C/c1ccc(O)c(O)c1)N/N=C/c1ccc(O)c(O)c1` was > 11 µM (inactive); that for `CN1C[C@H](CO)C=C2c3cccc4[nH]cc(c34)C[C@H]21` was > 11 µM (inactive).
The value for `CC(C)(C)OC(=O)NCCCC1=CC2=CC(=O)C(C)(OC(=O)c3ccco3)C(=O)C2=CO1` (stereo not drawn) was > 11 µM (inactive).
Regarding `Cc1cccc(CN2C(=O)N/C(=C/c3ccc(C)s3)C2=O)c1`, the EC50 is > 11 µM (inactive).
The value for `O=C1NC(=O)N(c2ccccc2)C(=O)/C1=C\c1ccc2c3c(cccc13)CC2` was > 11 µM (inactive); that for `CCOc1cc2c(cc1/C=C(/C#N)c1ccc(C(=O)O)cc1)OCO2` was > 11 µM (inactive).
With `CC1(C)c2[nH]c3ccccc3c2C[C@@H]2C(=O)N(c3ccc(F)cc3F)C(=O)N21`, the EC50 is > 11 µM (inactive).
For the compound `COc1ccc(C2C(C#N)=C(/N=C/N3CCOCC3)OC3=C2C(=O)CC(C)(C)C3)cc1OC` (stereo not drawn), the EC50 is > 11 µM (inactive).
The value for `O=C1NC(=O)[C@@H]2C3c4ccccc4C=CN3[C@H](C(=O)c3cccs3)[C@H]12` (stereo partly drawn) was > 11 µM (inactive); that for `O=C(Nc1ccc(Br)cn1)c1ccc2nccnc2c1` was > 11 µM (inactive).
For `Oc1ccc(N=Nc2ccccc2-c2nn[nH]n2)c(O)c1` the value was > 11 µM (inactive); for `COc1ccc(NC(=O)CCl)cn1`, > 11 µM (inactive); for `CC1=C(C#N)C(=O)NC(=O)/C1=C\c1ccc(-c2cc(C)c(C)cc2[N+](=O)[O-])o1`, > 11 µM (inactive).
The value for `Cc1c(C(=O)O)cccc1-n1c(C)cc(/C=C(/C#N)C(=O)NCc2ccccc2)c1C` was > 11 µM (inactive).
`Cc1cc(/C=C2\C(=O)NC(=O)N(c3cccc(F)c3)C2=O)c(C)n1-c1ccc(C(=O)O)c(Cl)c1`: the EC50 was > 11 µM (inactive).
In the case of `O=C(NCC1CCCO1)c1nn2c(C(F)(F)F)cc(-c3cc(Br)cs3)nc2c1Br` (stereo not drawn), the EC50 was > 11 µM (inactive).
The value for `CC(=O)Oc1oc(-c2ccccc2)nc1C=Nc1ccc(N(C)C)cc1` was > 11 µM (inactive); that for `CCOCCCn1c(=NC(=O)c2ccc(OC)c(OC)c2)c(C#N)cc2c(=O)n3cccc(C)c3nc21` was > 11 µM (inactive); that for `NC(=O)[C@@H]1CCCN1Cc1c(C(=O)N2CCc3ccccc3C2)nc2ccc(Cl)cn12` was > 11 µM (inactive).
In the case of `COc1ccc(C2C(C(=O)c3cccs3)=C(O)C(=O)N2c2nncs2)cc1` (stereo not drawn), the EC50 was > 11 µM (inactive).
The value for `CSCC(C)N1CCC(Oc2cccc(C(=O)NCc3ccccn3)c2)CC1` (stereo not drawn) was > 11 µM (inactive).
For the compound `CCC(Oc1ccccc1)C(=O)Nc1ccccn1` (stereo not drawn), the EC50 was > 11 µM (inactive).
The value for `O=C(NNC(=O)c1cnccn1)c1ccc(Cl)cc1` was > 11 µM (inactive).
Regarding `O=C(NCCCN1CCOCC1)C1Nc2ccc(OC(F)(F)F)cc2C2C=CCC12` (stereo not drawn), the EC50 was > 11 µM (inactive).
The value for `Oc1ccc(NC(=S)N=Nc2c(O)[nH]c3ccccc23)cc1` was > 11 µM (inactive); that for `Cc1nonc1OCCNCCNc1ccc([N+](=O)[O-])c2cccnc12` was > 11 µM (inactive).
The value for `Cc1ccc(S(=O)(=O)N(CCCN2CCCC2=O)Cc2cc3c(C)ccc(C)c3[nH]c2=O)cc1` was > 11 µM (inactive); that for `COc1cccc(N2C(=O)/C(=C/c3ccc(C)o3)C(=O)NC2=S)c1` was > 11 µM (inactive); that for `O=c1[nH]c(=O)n(-c2cccc(F)c2)c(O)c1/C=C1\C=Nc2ccccc21` was > 11 µM (inactive).
The value for `COc1cc2c3nnc(-c4ccc(F)cc4)c-3cn(Cc3ccc(C)cc3)c2cc1OC` was > 11 µM (inactive); that for `O=C(/C=C/Nc1ccc([N+](=O)[O-])cc1)c1ccc(Br)cc1` was > 11 µM (inactive).
For `O=C(O)CSc1cc(NS(=O)(=O)c2ccc(Cl)cc2)c2ccccc2c1O`, the EC50 is > 11 µM (inactive).
`COc1cc([N+](=O)[O-])cc(/C=N/NC(=O)CC#N)c1O`: the EC50 is > 11 µM (inactive).
In the case of `c1ccc(-c2cn3nc(-c4ccccc4)c(-c4ccccc4)nc3n2)cc1`, the EC50 is > 11 µM (inactive).
For `CCN1C/C(=C/c2cccs2)c2nc3ccccc3c(C(=O)O)c2C1` the value was > 11 µM (inactive); for `CCN(CC)c1ccc(C=C2C(=O)OC(C)(C(C)(C)C)OC2=O)cc1` (stereo not drawn), > 11 µM (inactive).
The value for `Cc1ccc(/C=N/Nc2ncnc3nc[nH]c23)cc1` was > 11 µM (inactive); that for `c1coc(-c2nc3ccccc3nc2-c2ccco2)c1` was > 11 µM (inactive).
For `CCC(=O)Nc1cc(C)c(NC(=O)CCc2ccccc2)cn1` the value was > 11 µM (inactive).
Turning to `CC(C)OC(=O)C(C#N)c1nc2ccccc2nc1N1CCCC1` (stereo not drawn), the EC50 is > 11 µM (inactive).
The value for `CC(=O)c1ccc2c(c1)C1C=CCC1C(c1ccncc1)N2` (stereo not drawn) was > 11 µM (inactive); that for `O=[N+]([O-])c1cccc(-c2cn3nc(-c4ccccc4)c(-c4ccccc4)nc3n2)c1` was > 11 µM (inactive).
The value for `N#CC1=C(N)C2=C(N3CCCCC3)CCCC2C1(C#N)C#N` (stereo not drawn) was > 11 µM (inactive); that for `O=C(O)C1Nc2c(C(F)(F)F)ccc(Cl)c2C2C=CCC12` (stereo not drawn) was > 11 µM (inactive).
For `COc1ccc(C2C(C#N)=C(N)OC3=C2C(=O)CC(C)C3)c(OC)c1OC` (stereo not drawn) the value was > 11 µM (inactive); for `CCCCCCn1c(O)c(C=NCCCn2ccnc2)c(=O)[nH]c1=O`, > 11 µM (inactive); for `CCN1CCN(Cc2c(C(=O)N/N=C(\C)c3ccc(Cl)cc3)nnn2-c2nonc2N)CC1`, > 11 µM (inactive).
Consider `Cc1nc(S/C(=C/c2ccc(-c3ccc(C(=O)O)cc3)o2)C(=O)O)n[nH]1`, for which the EC50 is > 11 µM (inactive).
For `Cc1ccc(-c2ccc(CCC(=O)O)n2-c2cccc(C(=O)O)c2)cc1` the value was > 11 µM (inactive); for `CC1CN(C2CC(C)(C)NC(C)(C)C2)CCC1=O` (stereo not drawn), > 11 µM (inactive); for `O=c1cc(-c2ccccc2Cl)oc2c(NS(=O)(=O)c3cc(Cl)cc(Cl)c3O)ccc(O)c12`, > 11 µM (inactive).
The value for `CCOC(=O)Cn1c(=O)c(-c2cc(Br)ccc2N)nc2ccccc21` was > 11 µM (inactive); that for `CC1=NOC(=O)/C1=C\c1ccc2c(c1)OCO2` was > 11 µM (inactive).
For `COC(=O)c1ccccc1NCc1cc(=O)oc2cc(O)c(O)cc12` the value was > 11 µM (inactive); for `Cc1cccc(Oc2nc(-c3ccccn3)nc3ccccc23)c1`, > 11 µM (inactive); for `COc1ccc(C(=O)/C=C2\NCC3c4ccccc4CCN3C2=O)cc1` (stereo not drawn), > 11 µM (inactive).
For `Cc1nn(-c2ccccc2)c(N2CCCC2)c1/C=C1\N=C(c2ccc(F)cc2)OC1=O`, the EC50 is > 11 µM (inactive).
For `O=C(O)c1ccccc1-c1ccc(C=C2C(=O)N(c3ccccc3)C(=S)N(c3ccccc3)C2=O)o1` the value was > 11 µM (inactive); for `CCc1ccc(/C=C2\Oc3c(ccc(O)c3CN3CCN(CCO)CC3)C2=O)cc1`, > 11 µM (inactive); for `Cc1sc(-n2c(C)cc(C=C3C(=O)NC(=O)NC3=O)c2C)c(C#N)c1C`, > 11 µM (inactive).
For `CN(C)c1ccc(/C=C(\C#N)C(=O)NCc2ccco2)cc1` the value was > 11 µM (inactive); for `Cc1c(N)cc(N)cc1C(=O)O`, > 11 µM (inactive).
The value for `C=CCn1c(=O)/c(=C\c2ccsc2)s/c1=C(/C#N)C(=O)NCCN1CCOCC1` was > 11 µM (inactive); that for `Cc1cc(=O)n2[nH]c(=O)c(N=Nc3ccccc3)c2[nH]1` was > 11 µM (inactive); that for `O=C(c1ccc(F)cc1)N1CCN(C2CCC(c3ccccc3)CC2)CC1` (stereo not drawn) was > 11 µM (inactive).
On to `COC(=O)C1=COC(C)C2CN3CCc4c([nH]c5cc(OC)c(OC)cc45)C3CC12` (stereo not drawn), for which the EC50 is > 11 µM (inactive).
The value for `CCOc1ccc(-n2c(O)c(C=Nc3ccc(N4CCOCC4)cc3)c(=O)[nH]c2=O)cc1` was > 11 µM (inactive).
The value for `Cc1cccn2c(=O)c3cc(C#N)c(=NC(=O)c4cccs4)n(CCCOC(C)C)c3nc12` was > 11 µM (inactive); that for `O=C1C2=C(SCCS2)C(=O)N1c1ccccc1` was > 11 µM (inactive); that for `COC(=O)c1cc(C(=O)OC)cc(-n2c(C)cc(C(=O)COC(=O)CNS(=O)(=O)c3ccc(C)cc3)c2C)c1` was > 11 µM (inactive).
The value for `CCC(=O)OC1(C)C(=O)C=C2C=C(C3CC3)OC=C2C1=O` (stereo not drawn) was > 11 µM (inactive); that for `C/C(=N\Nc1ccc([N+](=O)[O-])cc1[N+](=O)[O-])c1cc2c(ccc3ccccc32)oc1=O` was > 11 µM (inactive).
On to `CN1CCc2c(sc3c2C(=O)NC(c2ccccn2)N3)C1` (stereo not drawn), for which the EC50 is > 11 µM (inactive).
